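Each compound was tested at five concentrations against cells in 96-well plates for 48 hours. Abbreviation: GI50, concentration required for 50% inhibition of growth. TGI: total growth inhibition.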
Key:
Assay in all cases: growth of human tumour cells (NCI), 48 h
MDA-MB-231 breast = tested on: MDA-MB-231 breast
UO-31 renal = tested on: UO-31 renal
ACHN renal = tested on: ACHN renal
KM12 colon = tested on: KM12 colon
UACC-257 melanoma = tested on: UACC-257 melanoma
HCC-2998 colon = tested on: HCC-2998 colon
NCI/ADR-RES ovarian = tested on: NCI/ADR-RES ovarian
HCT-116 colon = tested on: HCT-116 colon
SNB-19 CNS = tested on: SNB-19 CNS
MOLT-4 leukemia = tested on: MOLT-4 leukemia

SMILES	GI50 (MDA-MB-231 breast)	TGI (MDA-MB-231 breast)	GI50 (UO-31 renal)	TGI (UO-31 renal)	GI50 (ACHN renal)	TGI (ACHN renal)	GI50 (KM12 colon)	TGI (KM12 colon)	GI50 (UACC-257 melanoma)	TGI (UACC-257 melanoma)	GI50 (HCC-2998 colon)	TGI (HCC-2998 colon)	GI50 (NCI/ADR-RES ovarian)	TGI (NCI/ADR-RES ovarian)	GI50 (HCT-116 colon)	TGI (HCT-116 colon)	GI50 (SNB-19 CNS)	TGI (SNB-19 CNS)	GI50 (MOLT-4 leukemia)	TGI (MOLT-4 leukemia)
CCc1ccc(C2=C/C(=C/c3ccc(Cl)cc3)C(=O)N2CCc2ccc(S(N)(=O)=O)cc2)cc1	2.36 µM	5.92 µM	1.55 µM	4.53 µM	1.94 µM	4.23 µM	3.02 µM	10.1 µM	3.79 µM	15.3 µM	2.59 µM	7.2 µM	4.6 µM	41.4 µM	1.74 µM	3.23 µM	2.98 µM	13.7 µM	2.19 µM	6.87 µM
COc1cc2c(c(OC)c1OC)-c1ccc(OC)c(=O)cc1[C@@H](NC(=O)CCl)CC2	< 0.01 µM	> 46 µM	0.0673 µM	45.3 µM	0.0295 µM	> 54.1 µM	< 0.01 µM	0.0521 µM	1.16 µM	31.8 µM	< 0.01 µM	22.3 µM	0.142 µM	> 23.2 µM	< 0.01 µM	0.0157 µM	< 0.01 µM	28.7 µM	< 0.01 µM	> 100 µM
COc1ccc(-c2cc(-c3ccc(Nc4nc(Nc5ccc(Cl)cc5)nc(Nc5ccc(Cl)cc5)n4)cc3)no2)cc1	16.4 µM	> 100 µM	5.36 µM	35.2 µM	27.6 µM	> 100 µM	7.83 µM	30.3 µM	33.2 µM	> 100 µM	2.37 µM	8.25 µM	16.3 µM	53.9 µM	4.33 µM	17.1 µM	27.4 µM	> 100 µM	1.39 µM	5.44 µM
COc1cc2c(c(OC)c1OC)-c1ccc([O-])c(=O)cc1[C@@H](NC(C)=O)CC2.COc1cc2c(c(OC)c1OC)-c1ccc([O-])c(=O)cc1[C@@H](NC(C)=O)CC2.[Cu+2]	3.84 µM	> 100 µM	4.1 µM	41.9 µM	7.83 µM	> 100 µM	1.87 µM	5.52 µM	12.5 µM	> 100 µM	2.58 µM	7.2 µM	6.16 µM	51.8 µM	3.2 µM	> 100 µM	14.7 µM	> 100 µM	3.42 µM	21.1 µM
O=c1oc2ccc(Cl)cc2c(=O)n1-c1ccc(Cl)cc1F	0.397 µM	4.59 µM	0.188 µM	1.62 µM	0.512 µM	8.32 µM	1.52 µM	4.5 µM	0.496 µM	2.31 µM	2.36 µM	8.09 µM	0.532 µM	3.79 µM	0.442 µM	1.7 µM	0.391 µM	> 100 µM	0.581 µM	2.69 µM
COc1cc(N2CCC(N3CCN(C)CC3)CC2)ccc1Nc1ncc(Cl)c(Nc2ccccc2P(C)(C)=O)n1	0.625 µM	31.7 µM	0.734 µM	2.7 µM	1.12 µM	9.65 µM	2.69 µM	> 100 µM	38.8 µM	> 100 µM	3.99 µM	> 100 µM	3 µM		1.09 µM	13.3 µM	3.09 µM	> 100 µM	4.58 µM	> 100 µM
COc1ccc(-c2coc3ncnc(N)c23)cc1	> 25 µM	> 25 µM	> 25 µM	> 25 µM	> 25 µM	> 25 µM	> 25 µM	> 25 µM	> 25 µM	> 25 µM	> 25 µM	> 25 µM	> 25 µM	> 25 µM	> 25 µM	> 25 µM	> 25 µM	> 25 µM	> 25 µM	> 25 µM
CCCCCCCCCCCCCOC(=O)c1c(C)[nH]c(/C=C2\N=C(c3ccc[nH]3)C=C2OC)c1C	< 0.0314 µM		0.103 µM	0.443 µM	0.139 µM	12.5 µM	< 0.0167 µM	> 100 µM	0.588 µM	> 100 µM	0.0307 µM	> 44.4 µM	0.116 µM	> 100 µM	< 0.0122 µM		5.37 µM	> 87.6 µM	0.0807 µM	> 100 µM
Nc1nc(N)c2nc(CNc3ccc(C(=O)CC(CCC(=O)O)C(=O)O)cc3)cnc2n1 (configuration not stated)	> 100 µM	> 100 µM	0.168 µM	> 100 µM	0.162 µM	> 100 µM	0.232 µM	> 100 µM	> 25.5 µM	> 100 µM	0.179 µM	> 96.2 µM	0.224 µM	> 100 µM	< 0.0185 µM	> 100 µM	0.627 µM	> 100 µM	0.125 µM	> 100 µM

— PubChem BioAssay (NCI)
